Data on 3 compounds can be found in ChEMBL document CHEMBL5233288, “Ginkgo Biflavones Cause p53 Wild-Type Dependent Cell Death in a Transcription-Independent Manner of p53” (J Nat Prod, 2023).

Data set [1] concerns HCT-116. In words: Induction of cell cycle arrest in human HCT-116 cells expressing wild type p53 assessed as accumulation of cells at S phase at 10 uM incubated for 24 hrs by PI staining based flow cytometry (reference value: 0.52 to 3.83%). The class given is functional.
Data set [2] deals with HCT-116. In words: Cytotoxicity against human HCT-116 cells deficit of p53 expression assessed as induction of cell death at 20 uM incubated for 72 hrs by resazurin based analysis. Type of data set: functional.
Data set [3] relates to HCT-116. As to the kind of experiment: Upregulation of p21 protein expression in human HCT-116 cells at 20 uM incubated for 24 hrs by western blot analysis. The class given is functional, cell-based.
Data set [4] deals with HCT-116. In words: Induction of cell cycle arrest in human HCT-116 cells expressing wild type p53 assessed as accumulation of cells at G1 phase at 5 uM incubated for 24 hrs by PI staining based flow cytometry (reference value: 62.5 to 66.7%). Type of data set: functional.
The subject of data set [5] is HCT-116. As to the kind of experiment: Increase in mitochondrial complex I activity in human HCT-116 cells at 20 uM incubated for 24 hrs. Type of data set: functional, cell-based.
The subject of data set [6] is HCT-116. In words: Upregulation of p53 protein expression in human HCT-116 cells expressing wild type p53 incubated for 24 hrs by western blot analysis. Type of data set: functional, cell-based. To be noted: dose 2.5-20 µM.
Data set [7] deals with HCT-116. As to the kind of experiment: Upregulation of p53 protein expression in human HCT-116 cells expressing wild type p53 at 20 uM by western blot analysis. Type of data set: functional, cell-based. The following applies: time 0.5-16 hrs, TDE = time-dependent effect.
Data set [8] has as its system HCT-116. As to the kind of experiment: Induction of apoptosis in human HCT-116 cells expressing wild type p53 assessed as viable cells at 10 uM incubated for 48 hrs by Annexin V-FITC/PI staining based flow cytometry (reference value: 82%). The class given is functional. The following applies: read-out: Activity.
In data set [9] the test system is HCT-116. As to the kind of experiment: Induction of cell cycle arrest in human HCT-116 cells expressing wild type p53 assessed as accumulation of cells at G2 phase at 20 uM incubated for 24 hrs by PI staining based flow cytometry (reference value: 30.7 to 31.5%). Type of data set: functional.
For data set [10], the system named is HCT-116. As to the kind of experiment: Induction of apoptosis in human HCT-116 cells expressing wild type p53 assessed as late apoptotic cells at 10 uM incubated for 48 hrs by Annexin V-FITC/PI staining based flow cytometry (reference value: 5.06%). Type of data set: functional.
For data set [11], the system named is HCT-116. As to the kind of experiment: Induction of apoptosis in human HCT-116 cells expressing wild type p53 assessed as necrotic cells at 20 uM incubated for 48 hrs by Annexin V-FITC/PI staining based flow cytometry (reference value: 0.44%). Type of data set: functional.
Data set [12] relates to HCT-116. In words: Potentiation of 5-FU-induced antitumor activity against human HCT-116 cells xenografted in BALB/c nude mouse assessed as reduction in tumor volume at 10 mg/kg, ip qd for 12 days and administered with 5-FU at 30 mg/kg, ip once every 3 days for 12 days and measured every 2 days. Type of data set: functional, organism-based. The following applies: time 12.0 day.

Data set [13] in a line: Toxicity against BALB/c nude mouse xenografted with human HCT-116 cells assessed as body weight loss at 10 mg/kg, ip qd for 12 days and measured every 2 days. Type of data set: organism-based. To be noted: in vivo, 288 h, time 12 day.
A short description of data set [14]: Toxicity against BALB/c nude mouse xenografted with human HCT-116 cells assessed as body weight loss at 10 mg/kg, ip qd for 12 days and administered with 5-FU at 30 mg/kg, ip once every 3 days for 12 days and measured every 2 days. To be noted: in vivo, 288 h, time 12 day. The class given is organism-based.
The subject of data set [15] is HCT-116. In words: Antitumor activity against human HCT-116 cells xenografted in BALB/c nude mouse assessed as reduction in tumor volume at 10 mg/kg, ip qd for 12 days and measured every 2 days. The class given is functional, organism-based. The following applies: time 12.0 day.
For data set [16], the system named is HCT-116. In words: Antitumor activity against human HCT-116 cells xenografted in BALB/c nude mouse assessed as reduction in tumor weight at 10 mg/kg, ip qd for 12 days. The class given is functional, organism-based. The following applies: time 12.0 day.
The test system of data set [17] is HCT-116. In words: Potentiation of 5-FU-induced antitumor activity against human HCT-116 cells xenografted in BALB/c nude mouse assessed as reduction in tumor weight at 10 mg/kg, ip qd for 12 days and administered with 5-FU at 30 mg/kg, ip once every 3 days for 12 days. The class given is functional, organism-based. The following applies: time 12.0 day.

SMILES strings stand for the structures. Calls of active or inactive are those of the source. No cut-off for these calls is given here.

On to `COc1ccc(-c2cc(=O)c3c(O)cc(O)cc3o2)cc1-c1c(O)cc(O)c2c(=O)cc(-c3ccc(O)cc3)oc12` [BILOBETIN], for which the Activity in the data set with HCT-116 [1] is 4.88%; in the data set on HCT-116 [4], 64.4%; in the data set on HCT-116 [6], “Dose-Dependent Effect”; in the data set on HCT-116 [7] it was “Tde”; in the data set with HCT-116 [9] it was 41%; in the data set on HCT-116 [10], 3.58%. Also, the Activity in the data set with HCT-116 [11] is reported as 0.49%. Also, the outcome with HCT-116 [2] and in the data set with HCT-116 [3] was inactive. The result in the data set with HCT-116 [5] was Active. Moreover, in the data set on HCT-116 [8], the viability at 10 µM came out at 67.9%.
For `COc1cc(O)c2c(=O)cc(-c3ccc(OC)c(-c4c(O)cc(O)c5c(=O)cc(-c6ccc(O)cc6)oc45)c3)oc2c1` [GINKGETIN], the outcome in the data set with HCT-116 [12], in the data set on HCT-116 [15], in the data set on HCT-116 [5], with HCT-116 [16] and with HCT-116 [17] was Active. For the same compound, the Activity is 3.37% in the data set with HCT-116 [1]; “Non-Toxic” in [13]; 58.1% in the data set on HCT-116 [4]; “Non-Toxic” in data set [14]; “Dose-Dependent Effect” in the data set with HCT-116 [6]; “Tde” in the data set on HCT-116 [7]. For the same compound, the values for the Activity in the data set with HCT-116 [9], in the data set with HCT-116 [10] and with HCT-116 [11] were 52.1%, 5.69% and 0.54%, respectively. For the same compound, the outcome with HCT-116 [2] and in the data set with HCT-116 [3] was inactive. Also, the viability at 10 µM with HCT-116 [8] came out at 67.6%.
Regarding `COc1ccc(-c2cc(=O)c3c(O)cc(O)c(-c4cc(-c5cc(=O)c6c(O)cc(O)cc6o5)ccc4OC)c3o2)cc1` [ISOGINKGETIN], the Activity is 1.38% in the data set on HCT-116 [1]; 58.4% in the data set with HCT-116 [4]; “Dose-Dependent Effect” with HCT-116 [6]; “Tde” in the data set on HCT-116 [7]; 46.6% in the data set on HCT-116 [9]; 2.58% with HCT-116 [10]. Further, the Activity with HCT-116 [11] stood at 0.79%. The result in the data set on HCT-116 [2] and in the data set on HCT-116 [3] was inactive. Further, in the data set with HCT-116 [5], the outcome was Active. Moreover, in the data set with HCT-116 [8], the viability at 10 µM came to 70%.
